Reference: patent US9801919B2, “Oral compositions containing enhanced antibacterial combinations of antioxidants and extracts of magnolia” (WM. WRIGLEY JR. COMPANY, priority 2008, dated 2017)

Tests used:
S. mutans [1] = test: MIC and FIC of MBE and common antioxidants against S. mutans (broth two-fold dilution); type: cell-based, Streptococcus mutans; details: sample alone, lowest concentration with no visible growth, aerobic 37° C., 1 to 2 days; for MIC: Streptococcus mutans
Protocol: (§1) To evaluate an enhanced effect of an active ingredient in combination of magnolia with antioxidant, the fractional inhibitory index (FIC) is computed according to equation (1): […]
The following tests were conducted on S. mutans.
BHA, gallic acid, octyl gallate and magnolia bark extract (MBE) sample were dissolved in ethanol to produce 1-10% working solution and was added to a nutrient broth and shaken well and was diluted two-fold in individual test tubes. A total of 0.2 milliliter (mL) of inoculated bacteria culture purchased from American Type Culture Collection (ATCC) was added to each test tube. The tubes were incubated aerobically at 37° C. for 1 to 2 days. […] FIC values were determined by equation 1.

S. sobrinus = test: MIC and FIC of MBE and common antioxidants against S. sobrinus (broth two-fold dilution); type: cell-based, Streptococcus sobrinus; details: sample alone, lowest concentration with no visible growth, aerobic 37° C., 1-2 days; for MIC: Streptococcus sobrinus
Protocol: as §1
S. Sobrinus, another common pathogen associated with dental plaque is also associated with dental caries.
BHA, BHT, gallic acid, octyl gallate and magnolia bark extract (MBE) samples were dissolved in ethanol to produce 1-10% working solution and was added to a nutrient broth and shaken well and was diluted two-fold in individual test tubes A total of 0.2 mL of inoculated bacteria culture purchased from ATCC was added to each test tube. The tubes were incubated aerobically at 37° C. for 1-2 days.

S. mutans [2] = details: active principles of Magnolia Cortex extracts; cited from earlier work

MIC (S. sobrinus) [µg/mL] | Compound | bactericidal against S. mutans in in vitro MIC test (S. mutans [2]) | further results
– | COc1ccc(O)c(C(C)(C)C)c1 [BHA, butylated hydroxyanisole] | – | MIC (ppm) (S. mutans [1]): 250 ppm; MIC (ppm) (S. sobrinus): 500 ppm
> 2000 | Cc1cc(C(C)(C)C)c(O)c(C(C)(C)C)c1 [BHT, butylated hydroxytoluene] | – | –
> 2000 | O=C(O)c1cc(O)c(O)c(O)c1 [Gallic acid] | – | MIC (S. mutans [1]): > 2000 µg/mL
250 | CCCCCCCCOC(=O)c1cc(O)c(O)c(O)c1 [Octyl gallate] | – | MIC (S. mutans [1]): 250 µg/mL
– | C=CCc1ccc(O)c(-c2ccc(O)c(CC=C)c2)c1 [honokiol] | bactericidal | –
– | C=CCc1ccc(O)c(-c2cc(CC=C)ccc2O)c1 [magnolol] | bactericidal | –
– | CCCc1ccc(O)c(-c2ccc(O)c(CCC)c2)c1 [tetrahydrohonokiol] | bactericidal | –
– | CCCc1ccc(O)c(-c2cc(CCC)ccc2O)c1 [tetrahydromagnolol] | bactericidal | –
